In patent US5817640A (Gensia Pharmaceuticals, priority 1995, dated 1998):
“And” between values parts separate entries of the source, which are not always exact repeats. Equal entries are not always repeated. “Also recorded” adds a separate entry of the source.

Legend:
[1] = test system: patients undergoing coronary artery bypass graft (CABG) surgery; assay: Myocardial ischemia by continuous Holter ECG and TEE (Phase 2); format: in vivo, human; conditions: for Mean duration of postbypass ECG ischemic episodes: patients with events, placebo 175 ± 156, p=0.04; for Incidence of prebypass ECG ischemia: placebo 0%; for Incidence of ECG ischemia (postbypass) / Incidence of preoperative (baseline) ECG ischemia: placebo 18%; for Incidence of ECG ischemia (postbypass): p=0.42; for Incidence of prebypass TEE ischemia: placebo 19%; for Incidence of prebypass TEE ischemia / Ischemic minutes per hour monitored, postbypass: p=0.22; for Incidence of postbypass TEE ischemia: placebo 29%, p=0.86; for Ischemic minutes per hour monitored, postbypass: placebo 35 ± 14; for Mean area under the S-T curve (AUC), postbypass ECG ischemia: placebo -258 ± 317, p=0.24; for Incidence of preoperative (baseline) ECG ischemia: before drug; for Mean area under the S-T segment: post-bypass, placebo 35±14
Experimental: During surgery, anesthesia was maintained by continuous infusion of fentanyl and midazolam. Routine clinical parameters were recorded using standard operating room monitoring equipment. Continuous 2-lead Holter ECG and TEE data were recorded. Standard surgical procedures (e.g., aorta cross-clamping, crystalloid cardioplegia, cardio-pulmonary bypass, hypothermia) were used. Anastomoses were constructed, aorta cross-clamp removed and patients were discontinued from bypass when body temperature was 37° C. The quality of anastomosis was judged by the surgeon. Difficulty in weaning from bypass was judged by need for one or more of the following: pacemaker, return to bypass, balloon pump or vasopressor administration. Hemodynamic measurements, including heart rate, arterial blood pressure, pulmonary capillary wedge pressure and cardiac output, were recorded before sternotomy, 15 and 30 min after bypass and upon chest closure. Radial artery and pulmonary artery pressures, myocardial and whole body temperature, O2 saturation, end-tidal CO2 and arterial blood gases were measured, and ECG recordings were obtained as clinically indicated. Hemodynamic variables (blood pressure, heart rate, pulmonary capillary wedge pressure) were controlled within 20% of baseline using prescribed regimens.
A twelve-lead ECG was obtained on arrival in the intensive care unit and during post-operative days 1, 2, 3 and at hospital discharge. Creatinine phosphokinase MB band (CK-MB) was obtained every 8 hours for 48 hours and when indicated. Radio-nuclide ventriculography for ejection fraction and wall motion score was done about 14 days post-operation and as close to hospital discharge as possible. Other tests and measurements (e.g., chest x-ray, pulmonary artery wedge pressure (PCWP) were performed when clinically indicated for diagnosis or evaluation of myocardial infarction, or congestive heart failure. Timing and dose of all cardiovascular medications within 48 hours after surgery were recorded. The total dose of all analgesics during the 24-hour post-operative period was recorded. Fluid intake and output (e.g., blood replacement and urine output) were recorded for 48 hours. The type and duration of inotropic support and antiarrhythmic intervention required were recorded through 24 hours after surgery. Two-channel Holter recordings were obtained during 3 periods, the eight hours prior to intubation, from intubation through the end of surgery, and for an additional 24-48 hours after surgery.
The evaluation of Holter tapes and echo videotapes was performed centrally by two independent blinded observers; if there was disagreement between the two, a third observer was used to "break the tie." The same observers were used throughout the study.
5. Ischemic Events--TEE. Ischemic event data were evaluated during two time periods--pre-bypass and post-bypass, using the following analysis:
a) The number of patients with ischemic events was compared across the groups using Fisher's exact test. This analysis also included pre-post changes and pre- and post-combined.
b) For patients with events, analysis of the mean duration and severity of ischemia was done. Using only the patients with ischemic events reduced the number included in the analysis, but allowed determination of whether the drug is effective in reducing the magnitude of the events, should they occur. […] For severity (an […] variable, 0-4 scale) and number of events, the Kruskal-Wallis nonparametric test was used. The same comparisons were done with the active treatment groups combined.
6. Ischemic Events--ECG. The analysis of ischemic events indicated by ECG was done using the same methods as the echo events. The time periods analyzed were: (a) baseline (Holter start to infusion start), (b) pre-bypass (infusion start to bypass start), (c) post-bypass (sideclamp off to infusion end), and (d) post-treatment (infusion end to Holter end). […]

[2] = Plasma AICA riboside concentrations / pharmacokinetics in CABG patients (Phase 2); format: in vivo, human
Experimental: 10. Plasma Levels. […] Individual values and group means were tabulated and drug clearance calculated. Dose proportionality was assessed.
The data are also presented graphically in FIG. 3.

[3] = Discoloration of liquid formulation during storage; format: physicochemical
[4] = high dose (0.1 mg/kg/min), 0.1 mg/kg
[5] = low dose (0.05 mg/kg/min), 0.05 mg/kg

With `NC(=O)c1ncn([C@@H]2O[C@H](CO)[C@@H](O)[C@H]2O)c1N` [AICA riboside, 5-amino-1-β-D-ribofuranosyl-imidazole-4-carboxamide] as the molecule, how does the “Mean duration of postbypass ECG ischemic episodes” value [1, 4] read?
The value was 36 ± 20 min and 36 min.

And the “Incidence of prebypass ECG ischemia” value ([1]; high dose (0.1 mg/kg/min))?
The value was 3%.

And the “Incidence of ECG ischemia (postbypass)” value ([1]; high dose (0.1 mg/kg/min))?
Its value is 11%.

And the “Incidence of prebypass TEE ischemia” value ([1]; high dose (0.1 mg/kg/min))?
Its value is 6%.

What about the “Incidence of postbypass TEE ischemia” value ([1]; high dose (0.1 mg/kg/min)) of the same molecule?
The value was 24%.

And the “Ischemic minutes per hour monitored, postbypass” value [1, 4]?
Its value is 27 ± 20 min/h.

What about the “Mean area under the S-T curve (AUC), postbypass ECG ischemia” value ([1]; high dose (0.1 mg/kg/min)) of the same molecule?
Its value is -52 ± 28 mm-min.

What about the “Incidence of preoperative (baseline) ECG ischemia” value ([1]; high dose group (0.1 mg/kg/min)) of the same molecule?
The value was 14%.

What about the “Mean area under the S-T segment” value ([1]; high dose) of the same molecule?
The value was 27±20.

And the “Mean duration of postbypass ECG ischemic episodes” value [1, 5]?
The value was 125 ± 80 min and 125 min.

What about the “Incidence of prebypass ECG ischemia” value ([1]; low dose (0.05 mg/kg/min)) of the same molecule?
The value was 3%.

And the “Incidence of ECG ischemia (postbypass)” value ([1]; low dose (0.05 mg/kg/min))?
Its value is 22%.

What about the “Incidence of prebypass TEE ischemia” value ([1]; low dose (0.05 mg/kg/min)) of the same molecule?
Its value is 15%.

And the “Incidence of postbypass TEE ischemia” value ([1]; low dose (0.05 mg/kg/min))?
Its value is 27%.

And the “Ischemic minutes per hour monitored, postbypass” value [1, 5]?
Its value is 40 ± 15 min/h.

And the “Mean area under the S-T curve (AUC), postbypass ECG ischemia” value ([1]; low dose (0.05 mg/kg/min))?
Its value is -172 ± 144 mm-min.

And the “Incidence of preoperative (baseline) ECG ischemia” value ([1]; low dose group (0.05 mg/kg/min))?
The value was 14%.

And the “Mean area under the S-T segment” value ([1]; low dose)?
The value was 40±15.

What about the “Effect on postsurgical myocardial ischemia” value ([1]; patients undergoing CABG surgery) of the same molecule?
The value was “limits the extent of postsurgical myocardial ischemia”.

And the “Steady state plasma concentration” value ([2]; 0.05 mg/kg/min)?
The value was “approximately 2.5 μg/ml”.

And the “Mean (±SEM) plasma AICA riboside concentration” value ([2]; 0.05 mg/kg/min constant infusion, n=40, pre-bypass)?
The value was 2.66 ± 0.30 µg/mL.

What about the “Mean (±SEM) plasma AICA riboside concentration” value ([2]; 0.05 mg/kg/min, n=40, 1 hour post-infusion) of the same molecule?
Its value is 0.32 ± 0.63 µg/mL.

What about the “Mean (±SEM) plasma AICA riboside concentration” value ([2]; 0.05 mg/kg/min, n=40, end infusion) of the same molecule?
Its value is 1.83 ± 0.13 µg/mL.

And the “Mean (±SEM) plasma AICA riboside concentration” value ([2]; 0.05 mg/kg/min, n=40, post-bypass)?
Its value is 2.49 ± 0.13 µg/mL.

And the “Steady state plasma concentration” value ([2]; 0.1 mg/kg/min)?
Its value is ~5.0 µg/mL.

What about the “Mean (±SEM) plasma AICA riboside concentration” value ([2]; 0.10 mg/kg/min constant infusion, n=31, pre-bypass) of the same molecule?
Its value is 5.11 ± 0.20 µg/mL.

And the “Mean (±SEM) plasma AICA riboside concentration” value ([2]; 0.10 mg/kg/min, n=31, 1 hour post-infusion)?
Its value is 0.45 ± 0.03 µg/mL.

What about the “Mean (±SEM) plasma AICA riboside concentration” value ([2]; 0.10 mg/kg/min, n=31, end infusion) of the same molecule?
The value was 3.67 ± 0.30 µg/mL.

And the “Mean (±SEM) plasma AICA riboside concentration” value ([2]; 0.10 mg/kg/min, n=31, post-bypass)?
Its value is 5.47 ± 0.19 µg/mL.

What about the “Kinetics (linearity, dose proportionality)” value ([2]; CABG patients, 0.05 and 0.1 mg/kg/min infusion) of the same molecule?
Its value is “exhibits linear kinetics; also recorded: good dose proportionality”.

What about the “Plasma concentration as % of steady state level after end of infusion” value ([2]; one hour after infusion terminated) of the same molecule?
Its value is 10%.

And the “Change of CLp during post-bypass period” value ([2]; post-bypass)?
Its value is “trend for the CLp to increase”.

And the “Dose needed in anesthetized patients, % less than in non-anesthetized patients” value ([2]; to achieve desired blood concentration levels)?
The value was 20-50%.

And the “Stability of liquid formulation” value [3]?
Its value is “variable discoloration”.
